# Laboratory results from US10280179B2, “Spiroquinoxaline derivatives as inhibitors of non-apoptotic regulated cell-death” (Helmholtz Zentrum Munchen—Deutches Forschungszentrum Fur …, priority 2013, dated 2019).
# Where two headings read alike, the source gives them in different places.
# How the values were obtained:
# [1] = tested on: human neuroblastoma cell line SH-SY5Y; experiment: Inhibition of BSO-induced non-apoptotic cell death (Example B.1); type: cell-based; details: SH-SY5Y cells, 72 hours
# Excerpt: Inhibition of BSO-Induced Non-Apoptotic Cell Death by Compounds Disclosed Herein
# L-Buthionine sulfoximine (BSO) is a well-known glutathione (GSH) depletory, which inhibits gamma-glutamyl-cysteine-synthetase, the enzyme catalyzing the rate-limiting step in GSH biosynthesis. The human neuroblastoma cell line SH-SY5Y is sensitive to BSO-induced intracellular glutathione depletion, which causes high levels of reactive oxygen species (ROS) and cellular stress mimicking cellular conditions following ischemia (cf., e.g., Yamada et al., Neurochem. Int. 59:1003-9 (2011)).
# Compounds disclosed herein were evaluated for their ability to promote cell survival upon administration of a lethal dose of BSO to cell-culture medium. Briefly, SH-SY5Y cells (ATCC® CRL-2266™) were propagated in DMEM supplemented with 10% FBS/1% Penicillin-Streptomycin, and then seeded onto 96-well plates at a concentration of 750 cells/well in 100 μL of media, to which BSO (Sigma Aldrich) was added (to a final concentration of 50 μM) together with increasing concentrations of the compound to be tested, and the plates incubated at 37° C./5% CO2 for 72 hours. Compound dilutions (0.5 pM to 100 μM) were prepared from 10 mM stocks dissolved in DMSO and diluted in media. Cells treated with BSO alone were used as negative control and alpha-Tocopherol (Sigma Aldrich) was used as positive control. Compound concentrations were tested in triplicate. After incubation, cell survival was detected using the live/dead cell assay AquaBluer™ (MultiTarget Pharmaceuticals) and quantified using a fluorescence plate reader (excitation filter: 530-560 nm/emission filter: 590 nm) (SpectraMax M4; Molecular Devices). Fluorescence data so obtained was normalised to the percentage of surviving cells and IC50 values calculated using the GraphPad Prism (GraphPad Software, Inc) software package.
# [2] = tested on: mouse hippocampal cell line (Ht22); experiment: Inhibition of glutamate-induced non-apoptotic cell death (Example B.2); type: cell-based; details: HT-22, Ht22 cells
# Method in brief: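 Ht22 cells (2,000/well, DMEM/10% FBS) seeded together with 5 mM glutamate and compound (0.5 pM to 100 μM, triplicate), incubated 72 h at 37 °C/5% CO2. Cell survival then quantified; glutamate alone as negative control, alpha-tocopherol as positive control.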
# SH-SY5Y cells = experiment: TNF-alpha-induced apoptosis, specificity for non-apoptotic cell death (Example B.3); type: cell-based, human; details: compound 1 μM, TNF-alpha 10 ng/mL, FIG. 1
# Experimental: SH-SY5Y cells were propagated and seeded in 96-well plates, together with compound N-1, N-2, N-10 of Table 1-N (FIG. 1(a)), compound O/S-6 or O/S-3 of Table 1-O/S (FIG. 1(b)), or compound C-12, C-91, or C-205 of Table 1-C (FIG. 1(c)) (each 1 μM) and TNF-alpha was added (final concentration: 10 ng/mL) to induce apoptosis. The apoptosis and pan-caspase inhibitor z-vad (final concentration: 50 μM) and the necroptosis inhibitor Necrostatin-1 (Nec-1; final concentration: 5 μM) were used for comparison. Control wells were established with vehicle only (DMSO), with and without treatment with TNF-alpha to induce apoptosis. Cells were incubated, and cell survival was detected and quantified. Percentage cell survival after TNF-alpha-induced apoptosis is shown (error bars indicate standard deviation (SD)).
# Briefly, SH-SY5Y cells were propagated and seeded in 96-well plates, together with the compound to be tested (1 μM), generally as described in Example B.1, except they were seeded at 1,000 cell/well and instead of BSO, TNF-alpha (Invitrogen) was added to a final concentration of 10 ng/mL to induce apoptosis. The apoptosis and pan-caspase inhibitor Z-VAD-fmk (Enzo Life Science; final concentration 50 μM) and the necroptosis inhibitor Necrostatin-1 (Nec-1; Enzo Life Science; final concentration 5 μM) were used for comparison. Control wells were established with vehicle only (DMSO), with and without treatment with TNF-alpha to induce apoptosis. Cells were incubated, and cell survival was detected and quantified as described in Example B.1.
# Pfa1 cells = experiment: Inhibition of non-apoptotic cell death after tamoxifen-induced GPx4 knockout in a recombinant cell line (Example B.4); type: cell-based; details: Mus musculus, read-out: Pfa1/TAM IC50
# Method in brief: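 Immortalised murine fibroblasts with tamoxifen-inducible CreERT2 for ablation of both GPx4 copies (Pfa1 cells) received tamoxifen on day 0 together with test compound. Cell survival was measured by AlamarBlue after 72 hours.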
# [3] = Cellular toxicity, same assay as Example B.4 without TAM (Example B.5); type: cell-based; details: mouse; Pfa1 cells without TAM; read-out: TC50 (the source's name)
# Excerpt: Cellular Toxicity of Compounds of the Invention
# An estimate of the toxicity for compounds of the invention was obtained by using the same assay as described in Example B.4, but without the addition of TAM. […] Such TC50 values obtained for certain compounds disclosed herein, together with an approximate therapeutic window (estimated by dividing each TC50 by the corresponding IC50 determined from example B.4) are shown in Table 3.
# [4] = 50 μM BSO, read-out: SH-SY5Y/BSO IC50
# [5] = BSO 50 μM, cell survival (AquaBluer), read-out: SH-SY5Y/BSO (Example B.1) IC50
# [6] = glutamate 5 mM, 72 hours, cell survival, read-out: Ht22/GLU (Example B.2) IC50
# [7] = glutamate-induced cell death, read-out: Ht22/GLU
structure (smiles),measurement,setting,value
CC1CCC2(CC1)Nc1ccccc1N=C2NCc1ccccc1Cl (stereo not shown) [C-91],IC50,[1]; [4],< 20 nM
same,IC50,[1]; [5],9.33 nM
same,IC50,[2]; [6],~50 nM
same,IC50,[2]; [7],< 200 nM
same,Percentage cell survival after TNF-alpha-induced apoptosis,SH-SY5Y cells,Non-inhibition of apoptotic cell-death
same,IC50,Pfa1 cells,< 200 nM
same,CC50,[3],10000 to 20000 nM
Clc1ccccc1CNC1=Nc2ccccc2NC12CCCCCC2 [C-205],IC50,[1]; [4],< 100 nM
same,IC50,[1]; [5],46.7 nM
same,IC50,[2]; [6],~100 nM
same,IC50,[2]; [7],< 500 nM
same,Percentage cell survival after TNF-alpha-induced apoptosis,SH-SY5Y cells,Non-inhibition of apoptotic cell-death
same,IC50,Pfa1 cells,< 200 nM
same,CC50,[3],20000 to 50000 nM
Clc1ccccc1CNC1=Nc2ccccc2NC12CCNCC2 [N-1],IC50,[1]; [4],< 20 nM
same,IC50,[1]; [5],6.51 nM
same,IC50,[2]; [6],10.3 nM
same,IC50,[2]; [7],< 200 nM
same,Percentage cell survival after TNF-alpha-induced apoptosis,SH-SY5Y cells,Non-inhibition of apoptotic cell-death
same,IC50,Pfa1 cells,< 50 nM
same,CC50,[3],10000 to 20000 nM
Cc1cc2c(cc1C)NC1(CCNCC1)C(NCc1cccc(F)c1)=N2 [N-257],IC50,[1]; [4],< 20 nM
same,IC50,[2]; [7],< 100 nM
same,IC50,Pfa1 cells,< 100 nM
same,CC50,[3],1000 to 2000 nM
Clc1ccc(CNC2=Nc3cc(Cl)c(Cl)cc3NC23CCNCC3)cc1Cl [N-258],IC50,[1]; [4],< 20 nM
same,IC50,[2]; [7],< 50 nM
same,IC50,Pfa1 cells,< 100 nM
same,CC50,[3],100 to 200 nM
Fc1cc2c(cc1F)NC1(CCNCC1)C(NCc1ccccc1Cl)=N2 [N-259],IC50,[1]; [4],< 10 nM
same,IC50,[2]; [7],< 50 nM
same,IC50,Pfa1 cells,< 50 nM
same,CC50,[3],1000 to 2000 nM
FC(F)(F)c1cccc(CNC2=Nc3cc(Cl)c(Cl)cc3NC23CCNCC3)c1 [N-260],IC50,[1]; [4],< 20 nM
same,IC50,[2]; [7],< 50 nM
same,IC50,Pfa1 cells,< 20 nM
same,CC50,[3],500 to 1000 nM
CCCCCCCCCCCCN1CCC2(CC1)Nc1ccccc1N=C2NCc1ccccc1 [N-261],IC50,[1]; [4],< 20 nM
same,IC50,[2]; [7],< 200 nM
same,IC50,Pfa1 cells,< 100 nM
same,CC50,[3],2000 to 5000 nM
Cc1cc(C)cc(CNC2=Nc3cc(C)c(C)cc3NC23CCNCC3)c1 [N-262],IC50,[1]; [4],< 20 nM
same,IC50,[2]; [7],< 50 nM
same,IC50,Pfa1 cells,< 50 nM
same,CC50,[3],500 to 1000 nM
Clc1ccccc1CNC1=Nc2ccccc2NC12CCOCC2 [O/S-1],IC50,[1]; [4],< 500 nM
same,IC50,[2]; [7],< 1000 nM
same,IC50,Pfa1 cells,< 1000 nM
same,CC50,[3],50000 to 100000 nM
Clc1cccc(CNC2=Nc3ccccc3NC23CCOCC3)c1 [O/S-2],IC50,[1]; [4],< 200 nM
same,IC50,[2]; [7],< 1000 nM
same,IC50,Pfa1 cells,< 500 nM
same,CC50,[3],20000 to 50000 nM
Clc1ccc(CNC2=Nc3ccccc3NC23CCOCC3)cc1 [O/S-3],IC50,[1]; [4],< 500 nM
same,IC50,[1]; [5],~100 nM
same,IC50,[2]; [6],~100 nM
same,IC50,[2]; [7],< 100 nM
same,Percentage cell survival after TNF-alpha-induced apoptosis,SH-SY5Y cells,Non-inhibition of apoptotic cell-death
same,IC50,Pfa1 cells,< 500 nM
same,CC50,[3],20000 to 50000 nM
Fc1ccc(CNC2=Nc3ccccc3NC23CCOCC3)cc1 [O/S-6],IC50,[1]; [4],< 500 nM
same,IC50,[1]; [5],68.3 nM
same,IC50,[2]; [6],218 nM
same,IC50,[2]; [7],< 500 nM
same,IC50,Pfa1 cells,< 1000 nM
same,CC50,[3],50000 to 100000 nM
Clc1cccc(CNC2=Nc3cc(Cl)c(Cl)cc3NC23CCOCC3)c1 [O/S-94],IC50,[1]; [4],< 50 nM
same,IC50,[2]; [7],< 500 nM
same,IC50,Pfa1 cells,< 50 nM
same,CC50,[3],10000 to 20000 nM
Clc1cccc(CNC2=Nc3ccccc3NC23CCSCC3)c1 [O/S-168],IC50,[1]; [4],< 100 nM
same,IC50,[2]; [7],< 500 nM
same,IC50,Pfa1 cells,< 200 nM
same,CC50,[3],20000 to 50000 nM
c1ccc(CNC2=Nc3ccccc3NC23CCOCC3)cc1 [O/S-337],IC50,[1]; [4],< 500 nM
same,IC50,[2]; [7],< 5000 nM
same,IC50,Pfa1 cells,< 5000 nM
same,CC50,[3],50000 to 100000 nM
c1ccc(CNC2=Nc3ccccc3NC23CCSCC3)cc1 [O/S-338],IC50,[1]; [4],< 500 nM
same,IC50,[2]; [7],< 5000 nM
same,IC50,Pfa1 cells,< 1000 nM
same,CC50,[3],50000 to 100000 nM
Clc1cc2c(cc1Cl)NC1(CCOCC1)C(NCc1ccccc1)=N2 [O/S-339],IC50,[1]; [4],< 20 nM
same,IC50,[2]; [7],< 200 nM
same,IC50,Pfa1 cells,< 50 nM
same,CC50,[3],20000 to 50000 nM
Cc1cc2c(cc1C)NC1(CCOCC1)C(NCc1ccccc1)=N2 [O/S-340],IC50,[1]; [4],< 200 nM
same,IC50,[2]; [7],< 500 nM
same,IC50,Pfa1 cells,< 500 nM
same,CC50,[3],20000 to 50000 nM
Cc1cccc(CNC2=Nc3cc(Cl)c(Cl)cc3NC23CCOCC3)c1 [O/S-342],IC50,[1]; [4],< 100 nM
same,IC50,[2]; [7],< 500 nM
same,IC50,Pfa1 cells,< 50 nM
same,CC50,[3],20000 to 50000 nM
Clc1ccc(CNC2=Nc3ccccc3NC23CCOCC3)cc1Cl [O/S-345],IC50,[1]; [4],< 100 nM
same,IC50,[2]; [7],< 500 nM
same,IC50,Pfa1 cells,< 100 nM
same,CC50,[3],20000 to 50000 nM
O=S1(=O)CCC2(CC1)Nc1ccccc1N=C2NCc1ccccc1 [O/S-363],IC50,[1]; [4],< 2000 nM
same,IC50,[2]; [7],< 5000 nM
same,IC50,Pfa1 cells,< 2000 nM
same,CC50,[3],10000 to 20000 nM
FC1(F)Oc2cc3c(cc2O1)NC1(CCOCC1)C(NCc1ccccc1)=N3 [O/S-366],IC50,[1]; [4],< 50 nM
same,IC50,[2]; [7],< 100 nM
same,IC50,Pfa1 cells,< 100 nM
same,CC50,[3],20000 to 50000 nM
CC(NC1=Nc2ccccc2NC12CCSCC2)c1ccccc1 (stereo not shown) [O/S-367],IC50,[1]; [4],< 200 nM
same,IC50,[2]; [7],< 500 nM
same,IC50,Pfa1 cells,< 1000 nM
same,CC50,[3],20000 to 50000 nM
c1ccc(CCNC2=Nc3ccccc3NC23CCSCC3)cc1 [O/S-368],IC50,[1]; [4],< 2000 nM
same,IC50,[2]; [7],< 2000 nM
same,IC50,Pfa1 cells,< 5000 nM
same,CC50,[3],20000 to 50000 nM
Cc1cc2c(cc1C)NC1(CCSCC1)C(NCc1ccccc1)=N2 [O/S-369],IC50,[1]; [4],< 50 nM
same,IC50,[2]; [7],< 200 nM
same,IC50,Pfa1 cells,< 100 nM
same,CC50,[3],10000 to 20000 nM
